Measurements: patent US20250339409A1, “USES OF PAN BET INHIBITORS” (VYNE THERAPEUTICS INC., priority 2021, published 2025)
Where two headings read alike, the source gives them in different places.

Key:
[1] = test system: IL4, IL13, IL31, CCL17, CCL26, CCL2 gene expression in Th2 stimulated human skin; test: Th2 stimulated human skin explants, RT-qPCR of biomarkers; format: cell-based; conditions: for inhibition at 0.01 µM / inhibition at 0.04 µM / inhibition at 0.16 µM / inhibition at 0.63 µM / inhibition at 2.5 µM / inhibition at 10 µM: Homo sapiens; for inhibition at 2.5 µM: 2.50 μM
Description: (§1) Human skin biopsy tissue was stimulated to induce a Th17 immuno-phenotype using a method derived from Feghali-Bostwick et al. Induction of a Th17 phenotype in human skin—a mimic of dermal inflammatory diseases, Methods and Protocols, 2, 45 (2019). The pharmacodynamic assay described therein involves a similar paradigm to elicit a Th2 response and is used to evaluate the therapeutic potential of the active compounds (e.g., BETi1; and
(§2) Freshly excised healthy human skin tissue from abdominoplasties is defatted, cleaned and sectioned into 7 mm biopsies. The biopsies are placed in Transwell® inserts with the epidermis apical and exposed to air and the dermis submerged in media in the basal chamber. The biopsies are pre-treated overnight at 37° C., 5% CO2 with different compounds and controls added to the media in the basal chamber.
(§3) The next day, contents of the basal chamber is replaced with fresh media containing the test compound (listed below) and a stimulation cocktail for either Th2 inflammation (proprietary of service provider cocktail) or Th17 inflammation (mix of antibodies against CD3, CD28, IL-4, IFNγ and recombinant IL-1β, IL-6, IL-21, TGF-β). The biopsies are incubated at 37° C., 5% CO2 for a further 24 hrs.
(§4) A list of all the treatments is provided below: • 1. Untreated control (for both stimulations) • 2. Th2 stimulated control • 3. Th17 stimulated control • 4. Th2+BETia at 0.01, 0.04, 0.16, 0.63, 2.50, and 10 μM • 5. Th2+BETi1 at 0.01, 0.04, 0.16, 0.63, 2.50, and 10 μM • 6. Th2+Ruxolitinib at 0.01, 0.04, 0.16, 0.63, 2.50, and 10 μM • 7. Th2+betamethasone valerate 210 μM (equivalent to 0.01%) • 8. Th17+BETia at 10 μM • 9. Th17+BETi1 at 10 μM • 10. Th17+Ruxolitinib at 10 μM • 11. Th17+betamethasone valerate 210 μM (equivalent to 0.01%)
(§5) After harvesting, the biopsies are cut in half, and one half is homogenized and used for RNA extraction by standard methods and inflammatory pathways is assessed by RT-qPCR. The ability of BETi1 or BETia to inhibit the activity of up to six biomarkers per stimulation is reported as percent activity calculated to stimulated control and fold change in gene expression calculated to untreated control with respect to Th2 (IL4, IL13, IL31, CCL17, CCL26, CCL2) and Th17 (CXCL10, IL17α, IL22, IL36γ, CCL20, SerpinB4). Statistical analysis is performed on data sets from all 3 donors combined and compares the percent inhibition of each biomarker by each treatment calculated to its respective vehicle.
(§6) qPCR values were calculated using the relative quantification approach outlined by Livak, et al (2001) (Section 9, Reference 2). The Ct values (threshold cycle) defined as the fractional cycle number at which the amount of amplified target reaches a fixed threshold, were normalised to the Ct value of an internal biomarker or ‘housekeeping gene’ (GAPDH). The higher limit of detection was set at a Ct value of 40, and any target having not reached Ct by 40 cycles was set to this value. The delta Ct values (dt(Ct)) refers to the Ct of the gene of interest minus the Ct of the internal biomarker. The ddt(Ct) is the dt(Ct) value of the gene minus the average dt(Ct) value of the untreated samples. The ddt(Ct) is converted to power by the equation; =power(2,dt(Ct)). Fold change was calculated as ratio of the power of the gene of interest divided by the average power of the untreated samples. This normalizes the untreated samplers to a value of 1. For the comparison of multiple skin donors, the stimulated samples were normalized to 100% maximum activity (such to normalize variability between different skin donors). Percent activity was calculated as the percent increase or decrease in stimulation compared to the stimulated samples set at 100% maximum activity. Percent change was calculated as: Inhibition=(100−(avg % activity/stimulated)*100). Statistical analysis was performed using One-way ANOVA with Dunnett's Multiple Comparisons (non parametric). […]

[2] = test system: CXCL10, IL17α, IL22, IL36γ, CCL20, SerpinB4 gene expression in Th17 stimulated human skin; test: Th17 stimulated human skin explants, RT-qPCR of biomarkers; format: cell-based; conditions: calculated to Th17 stimulated control, three skin donors; for inhibition at 10 µM: Homo sapiens
Description: as §1, §2, §3, §4, §5, §6

[3] = 210 μM, calculated to Th2 stimulated control
[4] = calculated to Th2 stimulated control, read-out: % Inhibition CCL17
[5] = calculated to Th2 stimulated control, read-out: % Inhibition CCL26
[6] = calculated to Th2 stimulated control, read-out: % Inhibition IL31
[7] = calculated to Th2 stimulated control, read-out: % inhibition CCL2
[8] = calculated to Th2 stimulated control, read-out: % inhibition IL4
[9] = calculated to Th2 stimulated control, read-out: % inhibition IL13
[10] = 10 μM, calculated to Th2 stimulated control, read-out: % Inhibition CCL26
[11] = 10 μM, calculated to Th2 stimulated control, read-out: % inhibition CCL2
[12] = 10 μM, calculated to Th2 stimulated control, read-out: % inhibition IL4
[13] = 10 μM, calculated to Th2 stimulated control, read-out: % inhibition IL13
[14] = 10 μM, read-out: % inhibition CCL20
[15] = 10 μM, read-out: % inhibition CXCL10
[16] = 10 μM, read-out: % inhibition IL22
[17] = 10 μM, read-out: % inhibition Serpinβ4

| Compound | inhibition at 0.01 µM [1, 4] [%] | inhibition at 0.01 µM [1, 5] [%] | inhibition at 0.01 µM [1, 6] [%] | inhibition at 0.01 µM [1, 7] [%] | inhibition at 0.01 µM [1, 8] [%] | inhibition at 0.01 µM [1, 9] [%] | inhibition at 0.04 µM [1, 5] [%] | inhibition at 0.04 µM [1, 7] [%] | inhibition at 0.04 µM [1, 8] [%] | inhibition at 0.16 µM [1, 6] [%] | inhibition at 0.16 µM [1, 7] [%] | inhibition at 0.16 µM [1, 9] [%] | inhibition at 0.63 µM [1, 4] [%] | inhibition at 0.63 µM [1, 5] [%] | inhibition at 0.63 µM [1, 7] [%] | inhibition at 0.63 µM [1, 9] [%] | inhibition at 2.5 µM [1, 7] [%] | inhibition at 2.5 µM [1, 8] [%] | inhibition at 2.5 µM [1, 9] [%] | inhibition at 10 µM [1, 10] [%] | other results |
| --- | --- | --- | --- | --- | --- | --- | --- | --- | --- | --- | --- | --- | --- | --- | --- | --- | --- | --- | --- | --- | --- |
| CCCCC(=O)O[C@]1(C(=O)CO)[C@@H](C)C[C@H]2[C@@H]3CCC4=CC(=O)C=C[C@]4(C)[C@@]3(F)[C@@H](O)C[C@@]21C [Betamethasone, betamethasone valerate, reference compound] |  |  |  |  |  |  |  |  |  |  |  |  |  |  |  |  |  |  |  |  | % Inhibition IL31 ([1]; 10 μM, calculated to Th2 stimulated control): 87.4%; % Inhibition CCL26 [1, 3]: 64.4%; % inhibition IL13 [1, 3]: 97.8%; % inhibition CCL20 ([2]; 10 μM): N/I (N/I indicates no inhibition.); % inhibition IL17α ([2]; 210 μM): 73.1%; % inhibition IL36γ ([2]; 210 μM): 77.7% |
| CCNC(=O)c1cc2c(-c3ccn(C)c(=O)c3Oc3c(C)cc(F)cc3C)cn(C)c(=O)c2[nH]1 [BETia] | 28.2 | 8.3 | < 0 | < 0 | < 0 | 22 | ~38 | < 0 | < 0 | 19.1 | < 0 | 27.7 | 25.4 | 2.8 | < 0 | 22.3 | < 0 | 57.5 | 24.9 | ~8 | inhibition at 0.04 µM [1, 6]: < 0%; inhibition at 0.04 µM [1, 9]: 15.8%; inhibition at 0.16 µM [1, 4]: 31.8%; inhibition at 0.16 µM [1, 5]: 46.3%; inhibition at 0.16 µM [1, 8]: 56.8%; inhibition at 2.5 µM [1, 4]: 30%; inhibition at 2.5 µM [1, 5]: 8%; inhibition at 10 µM [1, 11]: 21.5%; inhibition at 10 µM [1, 12]: ~76%; inhibition at 10 µM [1, 13]: 53.4%; inhibition at 10 µM [2, 14]: 40.1%; inhibition at 10 µM [2, 15]: 71.3%; inhibition at 10 µM [2, 16]: 79.7%; inhibition at 10 µM ([2]; 10 μM, read-out: % inhibition IL36γ): 78.2%; inhibition at 10 µM [2, 17]: 71.2% |
| N#CC[C@H](C1CCCC1)n1cc(-c2ncnc3[nH]ccc23)cn1 [Ruxolitinib, reference compound] | 23.2 | 14 | < 0 | < 0 | < 0 | 2.3 | 35.3 | < 0 | 41.9 | 57.9 | < 0 | 66.3 | 34 | 88.3 | < 0 | 48.8 | 33 | 20.5 | 18.5 | 98.5 | inhibition at 0.04 µM [1, 4]: 47.7%; inhibition at 0.63 µM [1, 6]: 55.9%; inhibition at 0.63 µM [1, 8]: 53.8%; inhibition at 2.5 µM [1, 6]: < 0%; inhibition at 10 µM ([1]; 10 μM, calculated to Th2 stimulated control, read-out: % Inhibition CCL17): 89.9%; inhibition at 10 µM ([1]; 10 μM, calculated to Th2 stimulated control, read-out: % Inhibition IL31): 29.9%; inhibition at 10 µM [1, 11]: ~57%; inhibition at 10 µM [1, 12]: 48.5%; inhibition at 10 µM [1, 13]: ~54%; highest percent inhibition of CCL17 gene expression ([1]; Th2-mediated stimulation, 10 μM): ca. 90%; inhibition at 10 µM [2, 14]: < 0%; inhibition at 10 µM [2, 15]: ~99%; inhibition at 10 µM ([2]; 10 μM, read-out: % inhibition IL17α): 2.8%; inhibition at 10 µM [2, 16]: ~99%; inhibition at 10 µM [2, 17]: 92% |
